Assay results as given in patent US8889638B2, “Stimulus-triggered prodrugs” (The Regents of the University of California, priority 2010, dated 2014).
Where “and” joins values, the source holds several entries; their conditions need not be identical. Identical values can stand only once.

What was measured:
[1] = tested on: β-glucosidase; experiment: β-glucosidase cleavage of glucose-protected compounds (UV-Vis, HPLC, Km); type: biochemical, almonds; details: 37° C.
Method: Absorption spectra of compounds 1-8 were taken on a Perkin-Elmer Lambda 25 UV-visible spectrophotometer. To a 1.0 mL solution at 0.05-0.06 mM concentration in HEPES buffer (50 mM, pH 7.5) was added β-glucosidase (16 U for compounds 2, 4, and 6, and 100 U for compound 8). Spectra were monitored over time either at room temperature for compounds 1-7 or at 37° C. for compound 8.
To a 1.0 mL solution of 8 in HEPES buffer at 25 μM, 50 μM, 75 μM, 100 μM, and 200 μM was added 100 U of β-glucosidase. Spectra were monitored over 4 h at 37° C. The concentration of product formed, 1,2-HOPO-2 (7), was determined using the extinction coefficient for 7 calculated at 346 nm (4279±372 M-1 cm-1) and was plotted versus time (min). The initial velocity (ν) of each reaction was determined analyzing the linear slope of the first 50 min. The Km value was calculated from the Lineweaver-Burk plot (1/ν vs. 1/[8]) where −1/Km equals the x-intercept (FIG. 10).
Analytical HPLC was performed on a HP Series 1050 system equipped with a Vydac® C18 reverse phase column (218 TP, 250×4.6 mm, 5 μm). […] Retention times of compounds 1-8 were determined under identical HPLC conditions prior to evaluation of glucose cleavage of the protected compounds. […]

[2] = biological target: T1, MMP-9 (catalytic domain, human, recombinant) (Homo sapiens, UniProt P14780); experiment: MMP-9 fluorescence-based inhibition assay with and without β-glucosidase; type: biochemical
T1 construct: MMP-9 (catalytic domain, human, recombinant); purchased BIOMOL International
T1 sequence (P14780 107-444 limits assumed): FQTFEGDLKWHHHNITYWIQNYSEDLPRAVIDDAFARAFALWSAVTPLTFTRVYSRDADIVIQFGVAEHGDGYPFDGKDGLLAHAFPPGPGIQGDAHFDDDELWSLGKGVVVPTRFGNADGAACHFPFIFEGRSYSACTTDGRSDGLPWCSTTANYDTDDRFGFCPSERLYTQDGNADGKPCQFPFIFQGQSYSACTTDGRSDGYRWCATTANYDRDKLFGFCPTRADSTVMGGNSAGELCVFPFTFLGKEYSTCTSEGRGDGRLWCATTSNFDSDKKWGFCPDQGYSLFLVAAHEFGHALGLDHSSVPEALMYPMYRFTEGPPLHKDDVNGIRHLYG
Method: MMP-9 (catalytic domain, human, recombinant), MMP-8 (catalytic domain, human, recombinant), and the assay kit were purchased from BIOMOL International. The assays were carried out according to the procedure provided with the kit. MMP activity was measured in 96-well plates using a Bio-Tek Flx 800 fluorescent plate reader. The ZBGs and their protected analogs were dissolved in DMSO and diluted in HEPES buffer (50 mM, pH 7.5) to a concentration of 10 mM for 1-2, 40 mM for 3-4, and 1.25 mM for 5-6. Each well contained 20 μL, of MMP-9 (0.45 U/mL), inhibitor (10 μL, of 1-6), 5 μL, of β-glucosidase (1 U/μL) when used, and buffer for a total volume of 99 μL. These were incubated for 1 h at 37° C. […] The reaction was initiated by the addition of 1 μL (400 μM) of the fluorescent substrate (Mca-Pro-Leu-Gly-Leu-Dpa-Ala-Arg-NH2 where Mca=(7-methoxycoumarin-4-yl)-acetyl and Dpa=N-3-(2,4-dinitrophenyl)-L-α-β-diaminopropionyl)) and kinetic activity was measured every minute for 30 min with excitation and emission wavelengths at 335 nm and 405 nm, respectively. Enzyme activity with inhibitor was calculated with respect to the control experiment (no inhibitor present). Measurements were performed in duplicate in two independent experiments.
For Cmpds 7 and 8, 1 mL sample in HEPES buffer at a concentration of 1 mM was incubated at 37° C. with 250 U of β-glucosidase (1 U/μL) for 4 h giving a final concentration of 0.8 mM of the inhibitor. After 4 h, a 200 μL aliquot was collected and filtered through a microcentrifuge filter. UV-Vis absorption spectroscopy was to verify that the concentration of 1,2-HOPO-2 was 0.71±0.2 mM in each of the samples using the extinction coefficient for 1,2-HOPO-2 (7) calculated at 346 nm (4,279.3±372 M-1 cm-1). Each well was made up with 20 μL of MMP-9 (0.45 U/mL), inhibitor (2 μL, for 7 and 8), and buffer for a total volume of 99 μL. These were incubated for 30 min at 37° C. For MMP-8 inhibition assays, each of the samples was diluted to 1 μM in HEPES buffer and 15 μL of each were added to 20 μL of MMP-8 (0.092 U/mL) and buffer for a total of 99 μL. The reaction was initiated by the addition of 1 μL (400 μM) of the fluorescent substrate and kinetic activity was measured every minute for 30 min with excitation and emission wavelengths at 335 nm and 405 nm, respectively. Enzyme activity with inhibitor was calculated with respect to the control experiment (no inhibitor present). A control sample was also performed, in which an aliquot of 250 U of β-glucosidase (1 U/μL) with 1 mL of HEPES buffer was incubated for 4 h at 37° C., filtered through a microcentrifuge filter, and evaluated in the MMP assay to confirm that no inhibition is observed with β-glucosidase. Measurements were performed in duplicate in two independent experiments. […]

O=C(NCc1ccc(-c2ccccc2)cc1)c1cccc(=O)n1O[C@@H]1O[C@H](CO)[C@@H](O)[C@H](O)[C@H]1O [Compound 8, N-(Biphenyl-4-ylmethyl)-6-oxo-1-(β-D-glucopyranosyloxy)-1,6-dihydropyridine-2-carboxamide]
Km ([1]; 100 U β-glucosidase, Lineweaver-Burk plot): ~210 µM and 210 µM
time required for complete conversion of 8 to 7 ([1]; β-glucosidase): ~4 h
inhibition at 16 µM ([2]; 16 μM, read-out: MMP-9 activity inhibited upon activation with β-glucosidase): 73%
inhibition of MMP-9 in the absence of β-glucosidase ([2]; 1 mM for 2, 4 mM for 4, 125 μM for 6, 16 μM for 8): very little inhibition
